In PubChem BioAssay (NCI):
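Step 1: Grow cells in 96-well plates. Step 2: Expose to compound for 48 hours at 5 concentrations. Step 3: Interpolate endpoints linearly; if unreached, use highest concentration. GI50: concentration for 50% inhibition of growth. Definition used: TGI = concentration required for complete inhibition of growth.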

Tests used:
Test in all cases: NCI anticancer screen, dose series, 48 h
RXF 393 renal = tested on: RXF 393 renal
EKVX NSCLC = tested on: EKVX NSCLC
HCT-116 colon = tested on: HCT-116 colon
U251 CNS = tested on: U251 CNS
SF-539 CNS = tested on: SF-539 CNS
NCI-H226 lung = tested on: NCI-H226 lung
OVCAR-4 ovarian = tested on: OVCAR-4 ovarian
SF-295 CNS = tested on: SF-295 CNS
T-47D breast = tested on: T-47D breast

Compound	TGI (RXF 393 renal)	TGI (EKVX NSCLC)	TGI (HCT-116 colon)	TGI (U251 CNS)	TGI (SF-539 CNS)	TGI (NCI-H226 lung)	TGI (OVCAR-4 ovarian)	TGI (SF-295 CNS)	TGI (T-47D breast)	GI50 (RXF 393 renal)	GI50 (EKVX NSCLC)	GI50 (HCT-116 colon)	GI50 (U251 CNS)	GI50 (SF-539 CNS)	GI50 (NCI-H226 lung)	GI50 (OVCAR-4 ovarian)	GI50 (SF-295 CNS)
COC(=O)c1cccc2cccc(C(=O)Nc3ccc(Cl)cc3)c12	> 100 µM	> 100 µM	> 100 µM	> 100 µM	> 100 µM	> 100 µM	> 100 µM	> 100 µM									
O=S1(=O)OCCOS(=O)(=O)C1Cl		> 100 µM	> 100 µM		> 100 µM	> 100 µM	> 100 µM	> 100 µM									
CC(C(=O)n1c2ccccc2c2ccccc21)N(c1ccccc1)c1ccccc1 (centres undefined)	28.4 µM	38.8 µM	32.7 µM	34.7 µM	34.7 µM	47.7 µM		37.1 µM									
OCCNCCOc1ccc(/C(=C(/Cl)c2ccccc2)c2ccccc2)cc1	14.7 µM	28.6 µM	20.2 µM	21.1 µM	26.6 µM	45 µM	31.5 µM	28.5 µM									
COc1cc(C2C(C(=O)Nc3cc(F)c(F)cc3F)=C(C)NC(C)=C2C(=O)Nc2cc(F)c(F)cc2F)ccc1O	52.2 µM	73.9 µM		> 100 µM	59.6 µM	79.5 µM	> 100 µM	55.3 µM									
CC1=CC(=O)C(C(O)(C(F)(F)F)C(F)(F)F)C(C)(C)C1 (centres undefined)	> 10 µM	> 10 µM	> 10 µM	> 10 µM	> 10 µM	> 10 µM	> 10 µM	> 10 µM	> 10 µM								
Cc1cc(C(C)(C)C)cc(Cc2cc(C(C)(C)C)cc(Cc3cc(C(C)(C)C)cc(C)c3O)c2O)c1O	6.26 µM	22.9 µM	10.2 µM	14.9 µM	23.6 µM	24.6 µM	20.2 µM	29.4 µM									
[F][Sn]([F])([c]1ccccc1)[c]1ccccc1	2.64 µM	3.96 µM	3.26 µM	3.05 µM	4.09 µM	4.26 µM	3.39 µM	3.85 µM		0.887 µM	1.83 µM	1.5 µM	1.63 µM	2.13 µM	2.11 µM	1.68 µM	1.99 µM
Cc1cccc(C(C)C)c1NC(=O)C(=O)C(C(=O)c1ccccc1F)C1OC(=O)c2ccccc21 (centres undefined)	27.5 µM	96.6 µM	27.5 µM	37.3 µM		21.5 µM	74.2 µM										
CC(=O)OCCOCNC(=S)N/N=C/c1ccc(Br)s1	> 100 µM	> 100 µM	> 100 µM	> 100 µM	> 100 µM	> 100 µM	> 100 µM	> 100 µM									
COc1cc(C(=O)C/C(CCC(=O)Nc2ccc(Cl)cc2Cl)=N/NC(=O)C(=O)NN)ccc1O	> 100 µM	> 100 µM	> 100 µM	> 100 µM	> 100 µM	> 100 µM	> 100 µM	> 100 µM									
CC1=C(c2cc(C(=O)Nc3ccc(Cl)cc3)nc(=S)[nH]2)Sc2ccccc2N1	> 100 µM	> 100 µM	> 100 µM	> 100 µM	> 100 µM		> 100 µM	> 100 µM									
c1ccc(CSc2nc3ccccc3nc2-c2cccs2)cc1		> 100 µM	> 100 µM	> 100 µM	> 100 µM	> 100 µM	> 100 µM	> 100 µM									
N.N.NCCCCCCCCCN.O=C([O-])CC(=O)[O-].O=C([O-])CC(=O)[O-].[Pt+4].[Pt+4]	> 100 µM	> 100 µM	> 100 µM	> 100 µM	> 100 µM	> 100 µM	> 100 µM	> 100 µM		> 100 µM	> 100 µM	> 100 µM	95.2 µM	> 100 µM	> 100 µM	> 100 µM	> 100 µM
CCOc1ccccc1NC(=O)C(=O)Cc1nc2ccccc2s1	> 100 µM	> 100 µM	> 100 µM	> 100 µM	> 100 µM	> 100 µM	> 100 µM	> 100 µM									
O=C1C(=O)N(c2cc(Cl)ccc2Cl)C(=O)C(=O)C1c1nc2ccccc2o1	> 100 µM	> 100 µM	> 100 µM	> 100 µM	> 100 µM		> 100 µM	> 100 µM									
CC(C)(C)OC(=O)N1N=NC2C1C1CC(OCc3ccccc3)(OCc3ccccc3)C2O1 (centres undefined)	> 100 µM			> 100 µM		55.4 µM	> 100 µM	> 100 µM									
CC1CN1c1c(C(=O)/C=C/c2ccc(Cl)cc2)c(-c2ccccc2)nn(C)c1=O (centres undefined)	8.4 µM	> 10 µM	6.47 µM	5.36 µM	4.14 µM	> 10 µM	7.52 µM	> 10 µM									
